Measurements: the supplement of paper PMC10627819

Tests used:
S. aureus Newman = assay: Bliss interaction score (quartile over a dose matrix) (fitness difference); higher = more antagonism (negative = synergy)
How it was run: (§1)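 Quartiles summarise the Bliss score over technical, biological and donor/recipient replicates, where the score is observed minus expected fitness under a product model. Expected fitness uses single-drug values inferred from combination data. Fitness is OD595 at entry into stationary phase over the plate's robust no-drug mean, capped at 1.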

S. pneumoniae D39V [1] = assay: as above
How it was run: as §1

S. aureus DSM 20231 = assay: as above
How it was run: as §1

B. subtilis 168 [2] = assay: as above
How it was run: as §1

S. pneumoniae D39V [3] = assay: fitness (endpoint OD595 vs no drug) (fraction); higher = more growth
How it was run: (§2)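 Growth medium was TSB, LB Lennox or CY, and plates were kept at 37 °C. Inoculation was at OD595 0.01 in 384-well plates, at 30 µl per well or 55 µl for S. pneumoniae. OD595 was monitored every 30 min for 14 h and background-subtracted using the first reading. Fitness is the optical density on entering stationary phase divided by the robust mean of no-drug controls, with values capped at 1.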

B. subtilis 168 [4] = assay: as above
How it was run: as §2
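Throughout, for Bliss interaction score (quartile over a dose matrix): first quartile when negative (synergy) and third quartile when positive (antagonism).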

O=C(O[C@@H]1Cc2c(O)cc(O)cc2O[C@@H]1c1cc(O)c(O)c(O)c1)c1cc(O)c(O)c(O)c1 [EGCG] + CN(C)C(=O)C(CCN1CCC(O)(c2ccc(Cl)cc2)CC1)(c1ccccc1)c1ccccc1 [Loperamide]
Details | Bliss interaction score
B. subtilis 168 [2] | -0.097
S. aureus DSM 20231 | 0.183
S. aureus Newman | -0.0758
S. pneumoniae D39V [1] | 0.0701

fitness
Details | first compound 6.25 µg/mL | first compound 12.5 µg/mL | first compound 25 µg/mL | first compound 50 µg/mL
B. subtilis 168 [4], partner 25 µg/mL | – | – | 0.0734 | –
B. subtilis 168 [4], partner 50 µg/mL | – | 0.0521 | 0.0237 | –
B. subtilis 168 [4], partner 100 µg/mL | 0.0302 | 0.0337 | 0.0599 | –
S. pneumoniae D39V [3], partner 17.14 µg/mL | – | 0.91 | 0.921 | 0.965
S. pneumoniae D39V [3], partner 20 µg/mL | – | 0.988 | ≥ 1 | 0.991
S. pneumoniae D39V [3], partner 34.28 µg/mL | – | 0.895 | 0.982 | 0.992
S. pneumoniae D39V [3], partner 40 µg/mL | – | 0.984 | ≥ 1 | ≥ 1

S. pneumoniae D39V [3], partner 68.57 µg/mL, one replicate
Details | fitness
first compound 12.5 µg/mL | 0.491
first compound 25 µg/mL | 0.958
first compound 50 µg/mL | 0.891

O=C(O[C@@H]1Cc2c(O)cc(O)cc2O[C@@H]1c1cc(O)c(O)c(O)c1)c1cc(O)c(O)c(O)c1 [EGCG] + CO[C@@H]1[C@@H](OC(N)=O)[C@@H](O)[C@H](Oc2ccc3c(O)c(NC(=O)c4ccc(O)c(CC=C(C)C)c4)c(=O)oc3c2C)OC1(C)C [Novobiocin]
Details | Bliss interaction score
B. subtilis 168 [2] | -0.0765
S. aureus DSM 20231 | 0.0574
S. aureus Newman | 0.074
S. pneumoniae D39V [1] | -0.0624

fitness, B. subtilis 168 [4]
Details | first compound 6.25 µg/mL | first compound 12.5 µg/mL | first compound 25 µg/mL
partner 0.0125 µg/mL | 0.968 | 0.643 | 0.253
partner 0.025 µg/mL | 0.93 | 0.568 | 0.234
partner 0.05 µg/mL | 0.9 | – | 0.29

fitness, B. subtilis 168 [4], one replicate
Details | partner 0.1 µg/mL | partner 0.125 µg/mL | partner 0.2 µg/mL | partner 0.25 µg/mL | partner 0.5 µg/mL
first compound 6.25 µg/mL | 0.949 | 0.92 | 0.896 | 0.875 | 0.563
first compound 12.5 µg/mL | 0.756 | 0.69 | 0.759 | 0.522 | 0.194
first compound 25 µg/mL | 0.546 | 0.213 | 0.541 | 0.223 | 0.207

O=C(O[C@@H]1Cc2c(O)cc(O)cc2O[C@@H]1c1cc(O)c(O)c(O)c1)c1cc(O)c(O)c(O)c1 [EGCG] + C[C@H]1COc2c(N3CCN(C)CC3)c(F)cc3c(=O)c(C(=O)O)cn1c23 [Levofloxacin]
Details | Bliss interaction score
B. subtilis 168 [2] | -0.0322
S. aureus DSM 20231 | -0.055
S. aureus Newman | -0.0447
S. pneumoniae D39V [1] | -0.092

fitness
Details | first compound 6.25 µg/mL | first compound 12.5 µg/mL | first compound 25 µg/mL | first compound 50 µg/mL
B. subtilis 168 [4], partner 0.002 µg/mL | 0.941 | – | – | –
B. subtilis 168 [4], partner 0.0039 µg/mL | 0.89 | 0.629 | – | –
B. subtilis 168 [4], partner 0.0312 µg/mL | 0.05 | 0.038 | 0.0206 | –
B. subtilis 168 [4], partner 0.0625 µg/mL | 0.0332 | 0.0286 | 0.0506 | –
B. subtilis 168 [4], partner 0.125 µg/mL | 0.058 | 0.0419 | 0.0505 | –
S. pneumoniae D39V [3], partner 0.1725 µg/mL | – | 0.876 | 0.815 | 0.868
S. pneumoniae D39V [3], partner 0.2 µg/mL | – | 0.925 | 0.904 | 0.845
S. pneumoniae D39V [3], partner 0.345 µg/mL | – | 0.804 | 0.733 | 0.897
S. pneumoniae D39V [3], partner 0.4 µg/mL | – | 0.832 | 0.826 | 0.671
S. pneumoniae D39V [3], partner 0.69 µg/mL | – | – | 0.777 | –
S. pneumoniae D39V [3], partner 0.8 µg/mL | – | 0.333 | 0.262 | 0.337

fitness, B. subtilis 168 [4], one replicate
Details | first compound 6.25 µg/mL | first compound 12.5 µg/mL | first compound 25 µg/mL
partner 0.001 µg/mL | 0.993 | 0.712 | 0.276
partner 0.0078 µg/mL | 0.88 | 0.788 | 0.668

CCC[C@@H]1C[C@@H](C(=O)N[C@@H]([C@H]2O[C@H](SC)[C@H](O)[C@@H](O)[C@H]2O)[C@@H](C)O)N(C)C1 [Lincomycin] + CO[C@@H]1[C@@H](OC(N)=O)[C@@H](O)[C@H](Oc2ccc3c(O)c(NC(=O)c4ccc(O)c(CC=C(C)C)c4)c(=O)oc3c2C)OC1(C)C [Novobiocin]
Details | Bliss interaction score
B. subtilis 168 [2] | -0.0587
S. aureus DSM 20231 | 0.104
S. aureus Newman | 0.191
S. pneumoniae D39V [1] | -0.0884

fitness, B. subtilis 168 [4]
Details | first compound 0.1 µg/mL | first compound 0.2 µg/mL | first compound 0.4 µg/mL
partner 0.0125 µg/mL | 0.889 | 0.971 | 0.899
partner 0.025 µg/mL | 0.879 | 0.894 | 0.845
partner 0.05 µg/mL | 0.905 | 0.932 | 0.902

fitness, B. subtilis 168 [4], one replicate
Details | first compound 0.1 µg/mL | first compound 0.2 µg/mL | first compound 0.4 µg/mL | first compound 0.8 µg/mL | first compound 1.6 µg/mL
partner 0.1 µg/mL | ≥ 1 | 0.995 | 0.976 | – | –
partner 0.125 µg/mL | – | – | 0.836 | 0.883 | 0.88
partner 0.2 µg/mL | 0.991 | 0.956 | ≥ 1 | – | –
partner 0.25 µg/mL | – | – | 0.809 | 0.848 | 0.819
partner 0.5 µg/mL | – | – | 0.569 | 0.563 | 0.594
